From ChEMBL document CHEMBL4330105, “Identification of novel azaindazole CCR1 antagonist clinical candidates” (Bioorg Med Chem Lett, 2019)

Key:
Assay type in all cases: ADME, organism-based
[1] = Clearance in Sprague-Dawley rat at 10 mg/kg, po or 1 mg/kg, iv relative to hepatic blood flow; conditions: in vivo
[2] = Volume of distribution at steady state in Sprague-Dawley rat at 10 mg/kg, po or 1 mg/kg, iv; conditions: in vivo, read-out: Vdss
[3] = Oral bioavailability in Sprague-Dawley rat at 10 mg/kg; conditions: in vivo

- CL [1]: 8%
- Vd [2]: 1.2 L/kg
- bioavailability [3]: 29%
SMILES: CS(=O)(=O)c1cc(CNC(=O)c2cncc3c2cnn3-c2ccc(F)cc2)ccn1
